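Compound exposure: 48 hours, 5 concentrations, 96-well plates. GI50 is the concentration that inhibits growth by half. Definition used: TGI = concentration required for complete inhibition of growth.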 Where a SMILES comes first, the peptide text is derived from it. The star is where a group is joined. Boc = CC(C)(C)OC(=O)*
Columns and labels:
Experiment in all cases: NCI-60 cell line screen, 48 h
MALME-3M melanoma = tested on: MALME-3M melanoma
A549 NSCLC = tested on: A549 NSCLC
HOP-92 NSCLC = tested on: HOP-92 NSCLC
HCT-116 colon = tested on: HCT-116 colon
NCI-H460 lung = tested on: NCI-H460 lung
U251 CNS = tested on: U251 CNS
OVCAR-5 ovarian = tested on: OVCAR-5 ovarian
SF-268 CNS = tested on: SF-268 CNS
786-0 renal = tested on: 786-0 renal
HS 578T breast = tested on: HS 578T breast
MDA-MB-231 breast = tested on: MDA-MB-231 breast
SK-OV-3 ovarian = tested on: SK-OV-3 ovarian
OVCAR-3 ovarian = tested on: OVCAR-3 ovarian
OVCAR-8 ovarian = tested on: OVCAR-8 ovarian
T-47D breast = tested on: T-47D breast
NCI/ADR-RES ovarian = tested on: NCI/ADR-RES ovarian
KM12 colon = tested on: KM12 colon
SNB-19 CNS = tested on: SNB-19 CNS
A498 renal = tested on: A498 renal
LOX IMVI melanoma = tested on: LOX IMVI melanoma
OVCAR-4 ovarian = tested on: OVCAR-4 ovarian
SNB-75 CNS = tested on: SNB-75 CNS
SR leukemia = tested on: SR leukemia
NCI-H522 lung = tested on: NCI-H522 lung
MDA-N = tested on: MDA-N
PC-3 prostate = tested on: PC-3 prostate
SK-MEL-5 melanoma = tested on: SK-MEL-5 melanoma
MOLT-4 leukemia = tested on: MOLT-4 leukemia
NCI-H23 lung = tested on: NCI-H23 lung
MCF7 breast = tested on: MCF7 breast
SN12C renal = tested on: SN12C renal
RXF 393 renal = tested on: RXF 393 renal
SF-295 CNS = tested on: SF-295 CNS
HCT-15 colon = tested on: HCT-15 colon
MDA-MB-435 = tested on: MDA-MB-435
M14 melanoma = tested on: M14 melanoma
SF-539 CNS = tested on: SF-539 CNS
SK-MEL-28 melanoma = tested on: SK-MEL-28 melanoma
UO-31 renal = tested on: UO-31 renal
SW-620 colon = tested on: SW-620 colon
HT29 colon = tested on: HT29 colon
HL-60(TB) leukemia = tested on: HL-60(TB) leukemia
TK-10 renal = tested on: TK-10 renal
DU-145 prostate = tested on: DU-145 prostate
CAKI-1 renal = tested on: CAKI-1 renal
K-562 leukemia = tested on: K-562 leukemia
HCC-2998 colon = tested on: HCC-2998 colon
HOP-62 NSCLC = tested on: HOP-62 NSCLC
CCRF-CEM leukemia = tested on: CCRF-CEM leukemia
IGROV1 ovarian = tested on: IGROV1 ovarian
COLO 205 colon = tested on: COLO 205 colon
EKVX NSCLC = tested on: EKVX NSCLC
NCI-H226 lung = tested on: NCI-H226 lung
RPMI-8226 leukemia = tested on: RPMI-8226 leukemia
UACC-62 melanoma = tested on: UACC-62 melanoma
SK-MEL-2 melanoma = tested on: SK-MEL-2 melanoma
ACHN renal = tested on: ACHN renal
UACC-257 melanoma = tested on: UACC-257 melanoma
BT-549 breast = tested on: BT-549 breast

Structure (SMILES): NS(=O)(=O)c1ccc(/C=C/c2cccc(O)c2)cc1
- TGI (MALME-3M melanoma): > 100 µM
- GI50 (A549 NSCLC): 19.8 µM
- TGI (A549 NSCLC): > 100 µM
- GI50 (HOP-92 NSCLC): 17.4 µM
- TGI (HOP-92 NSCLC): 65.9 µM
- TGI (HCT-116 colon): > 100 µM
- TGI (NCI-H460 lung): > 100 µM
- GI50 (U251 CNS): 21.1 µM
- TGI (U251 CNS): > 100 µM
- TGI (OVCAR-5 ovarian): > 100 µM
- GI50 (SF-268 CNS): 65.6 µM
- TGI (SF-268 CNS): > 100 µM
- TGI (786-0 renal): > 100 µM
- GI50 (HS 578T breast): 61 µM
- TGI (HS 578T breast): > 100 µM
- TGI (MDA-MB-231 breast): > 100 µM
- TGI (SK-OV-3 ovarian): > 100 µM
- TGI (OVCAR-3 ovarian): 80.4 µM
- GI50 (OVCAR-8 ovarian): 25.2 µM
- TGI (OVCAR-8 ovarian): 58.7 µM
- TGI (T-47D breast): 87.4 µM
- TGI (NCI/ADR-RES ovarian): > 100 µM
- GI50 (KM12 colon): 35.4 µM
- TGI (KM12 colon): > 100 µM
- TGI (SNB-19 CNS): > 100 µM
- TGI (A498 renal): > 100 µM
- GI50 (LOX IMVI melanoma): 43 µM
- TGI (LOX IMVI melanoma): > 100 µM
- GI50 (OVCAR-4 ovarian): 27.8 µM
- TGI (OVCAR-4 ovarian): > 100 µM
- TGI (SNB-75 CNS): 99 µM
- GI50 (SR leukemia): 17.8 µM
- TGI (SR leukemia): > 100 µM
- GI50 (NCI-H522 lung): 12.2 µM
- TGI (NCI-H522 lung): 44.4 µM
- TGI (MDA-N): > 100 µM
- TGI (PC-3 prostate): > 100 µM
- TGI (SK-MEL-5 melanoma): 48.4 µM
- GI50 (MOLT-4 leukemia): 20 µM
- TGI (MOLT-4 leukemia): > 100 µM
- GI50 (NCI-H23 lung): 46.1 µM
- TGI (NCI-H23 lung): > 100 µM
- TGI (MCF7 breast): > 100 µM
- TGI (SN12C renal): > 100 µM
- TGI (RXF 393 renal): > 100 µM
- TGI (SF-295 CNS): > 100 µM
- GI50 (HCT-15 colon): 22.8 µM
- TGI (HCT-15 colon): > 100 µM
- GI50 (MDA-MB-435): 25.8 µM
- TGI (MDA-MB-435): > 100 µM
- TGI (M14 melanoma): > 100 µM
- GI50 (SF-539 CNS): 36.7 µM
- TGI (SF-539 CNS): > 100 µM
- TGI (SK-MEL-28 melanoma): > 100 µM
- TGI (UO-31 renal): 64.2 µM
- TGI (SW-620 colon): > 100 µM
- GI50 (HT29 colon): 43.3 µM
- TGI (HT29 colon): > 100 µM
- GI50 (HL-60(TB) leukemia): 41.4 µM
- TGI (HL-60(TB) leukemia): > 100 µM
- TGI (TK-10 renal): 93.7 µM
- TGI (DU-145 prostate): > 100 µM
- GI50 (CAKI-1 renal): 50.2 µM
- TGI (CAKI-1 renal): > 100 µM
- GI50 (K-562 leukemia): 43.4 µM
- TGI (K-562 leukemia): > 100 µM
- TGI (HCC-2998 colon): > 100 µM
- TGI (HOP-62 NSCLC): > 100 µM
- GI50 (CCRF-CEM leukemia): 16.1 µM
- TGI (CCRF-CEM leukemia): > 100 µM
- GI50 (IGROV1 ovarian): 30.2 µM
- TGI (IGROV1 ovarian): > 100 µM
- TGI (COLO 205 colon): 45.9 µM
- TGI (EKVX NSCLC): > 100 µM
- GI50 (NCI-H226 lung): 25.8 µM
- TGI (NCI-H226 lung): 74.3 µM
- GI50 (RPMI-8226 leukemia): 18.9 µM
- TGI (RPMI-8226 leukemia): 57.7 µM
- GI50 (UACC-62 melanoma): 18.6 µM
- TGI (UACC-62 melanoma): 50.4 µM
- TGI (SK-MEL-2 melanoma): 78.2 µM
- GI50 (ACHN renal): 25.8 µM
- TGI (ACHN renal): 99.6 µM
- TGI (UACC-257 melanoma): > 100 µM

Structure (SMILES): CC(NC(=O)C(NC(=O)OC(C)(C)C)C(C)C)C(=O)NCC(=O)O (stereo not drawn) (Boc-Val-Ala-Gly-OH; configuration not given here)
- TGI (MALME-3M melanoma): > 100 µM
- TGI (A549 NSCLC): > 100 µM
- TGI (HOP-92 NSCLC): > 100 µM
- TGI (HCT-116 colon): > 100 µM
- TGI (NCI-H460 lung): > 100 µM
- TGI (U251 CNS): > 100 µM
- TGI (OVCAR-5 ovarian): > 100 µM
- TGI (SF-268 CNS): > 100 µM
- TGI (786-0 renal): > 100 µM
- TGI (HS 578T breast): > 100 µM
- TGI (SK-OV-3 ovarian): > 100 µM
- TGI (OVCAR-3 ovarian): > 100 µM
- TGI (OVCAR-8 ovarian): > 100 µM
- TGI (T-47D breast): > 100 µM
- TGI (NCI/ADR-RES ovarian): > 100 µM
- TGI (KM12 colon): > 100 µM
- TGI (SNB-19 CNS): > 100 µM
- TGI (SR leukemia): > 100 µM
- TGI (NCI-H522 lung): > 100 µM
- TGI (MDA-N): > 100 µM
- TGI (PC-3 prostate): > 100 µM
- TGI (SK-MEL-5 melanoma): > 100 µM
- TGI (MOLT-4 leukemia): > 100 µM
- TGI (NCI-H23 lung): > 100 µM
- TGI (SN12C renal): > 100 µM
- TGI (RXF 393 renal): > 100 µM
- TGI (SF-295 CNS): > 100 µM
- TGI (HCT-15 colon): > 100 µM
- TGI (MDA-MB-435): > 100 µM
- TGI (M14 melanoma): > 100 µM
- TGI (SF-539 CNS): > 100 µM
- TGI (SK-MEL-28 melanoma): > 100 µM
- TGI (UO-31 renal): > 100 µM
- TGI (SW-620 colon): > 100 µM
- TGI (HT29 colon): > 100 µM
- TGI (TK-10 renal): > 100 µM
- TGI (DU-145 prostate): > 100 µM
- TGI (CAKI-1 renal): > 100 µM
- TGI (K-562 leukemia): > 100 µM
- TGI (HCC-2998 colon): > 100 µM
- TGI (HOP-62 NSCLC): > 100 µM
- TGI (IGROV1 ovarian): > 100 µM
- TGI (COLO 205 colon): > 100 µM
- TGI (EKVX NSCLC): > 100 µM
- TGI (RPMI-8226 leukemia): > 100 µM
- TGI (UACC-62 melanoma): > 100 µM
- TGI (BT-549 breast): > 100 µM
- TGI (SK-MEL-2 melanoma): > 100 µM
- TGI (ACHN renal): > 100 µM
- TGI (UACC-257 melanoma): > 100 µM

Structure (SMILES): COc1nc2c(c(=O)n1C)N[C@@H]1[C@@H](O)[C@H](O)CO[C@@H]1N2
- TGI (MALME-3M melanoma): > 100 µM
- TGI (A549 NSCLC): > 100 µM
- TGI (HCT-116 colon): > 100 µM
- TGI (NCI-H460 lung): > 100 µM
- TGI (U251 CNS): > 100 µM
- TGI (OVCAR-5 ovarian): > 100 µM
- TGI (SF-268 CNS): > 100 µM
- TGI (786-0 renal): > 100 µM
- TGI (HS 578T breast): > 100 µM
- TGI (SK-OV-3 ovarian): > 100 µM
- TGI (OVCAR-3 ovarian): > 100 µM
- TGI (OVCAR-8 ovarian): > 100 µM
- TGI (T-47D breast): > 100 µM
- TGI (NCI/ADR-RES ovarian): > 100 µM
- TGI (KM12 colon): > 100 µM
- TGI (SNB-19 CNS): > 100 µM
- TGI (A498 renal): > 100 µM
- TGI (LOX IMVI melanoma): > 100 µM
- TGI (OVCAR-4 ovarian): > 100 µM
- TGI (SNB-75 CNS): > 100 µM
- TGI (SR leukemia): > 100 µM
- TGI (NCI-H522 lung): > 100 µM
- TGI (MDA-N): > 100 µM
- TGI (PC-3 prostate): > 100 µM
- TGI (SK-MEL-5 melanoma): > 100 µM
- TGI (MOLT-4 leukemia): > 100 µM
- TGI (MCF7 breast): > 100 µM
- TGI (SN12C renal): > 100 µM
- TGI (RXF 393 renal): > 100 µM
- TGI (SF-295 CNS): > 100 µM
- TGI (HCT-15 colon): > 100 µM
- TGI (MDA-MB-435): > 100 µM
- TGI (M14 melanoma): > 100 µM
- TGI (SF-539 CNS): > 100 µM
- TGI (SK-MEL-28 melanoma): > 100 µM
- TGI (UO-31 renal): > 100 µM
- TGI (SW-620 colon): > 100 µM
- TGI (HT29 colon): > 100 µM
- TGI (HL-60(TB) leukemia): > 100 µM
- TGI (TK-10 renal): > 100 µM
- TGI (DU-145 prostate): > 100 µM
- TGI (CAKI-1 renal): > 100 µM
- TGI (K-562 leukemia): > 100 µM
- TGI (HOP-62 NSCLC): > 100 µM
- TGI (CCRF-CEM leukemia): > 100 µM
- TGI (IGROV1 ovarian): > 100 µM
- TGI (COLO 205 colon): > 100 µM
- TGI (EKVX NSCLC): > 100 µM
- TGI (NCI-H226 lung): > 100 µM
- TGI (RPMI-8226 leukemia): > 100 µM
- TGI (UACC-62 melanoma): > 100 µM
- TGI (BT-549 breast): > 100 µM
- TGI (SK-MEL-2 melanoma): > 100 µM
- TGI (UACC-257 melanoma): > 100 µM

Reference: PubChem BioAssay (NCI)
